Publication doi:10.1101/2025.03.31.646301v1, “Discovery of Tankyrase scaffolding inhibitor specifically targeting the ARC4 peptide binding domain” (biorxiv, 2025)
Where two headings read alike, the source gives them in different places.

Experiments:
[1] = target: T1, TNKS2 ARC4 (Homo sapiens, UniProt Q9H2K2); assay: biochemical; set-up: FRET competition: inhibition of CFP-ARC domain binding to YFP-REAGDGEE peptide
T1 construct: ankyrin repeat cluster 4 domain; FRET: 6xHis-mCerulean (CFP) fusion; DSF, NMR, crystal: MBP and His tag cleaved by TEV, residues 487-649 printed for crystal; E. coli BL21(DE3)
T1 sequence (Q9H2K2 487-649): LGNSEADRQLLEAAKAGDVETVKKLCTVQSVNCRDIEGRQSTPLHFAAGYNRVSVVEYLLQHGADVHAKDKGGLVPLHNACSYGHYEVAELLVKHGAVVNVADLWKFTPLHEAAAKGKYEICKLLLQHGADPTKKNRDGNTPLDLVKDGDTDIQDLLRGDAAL
Protocol: The FRET assay for discovery of chemical probes targeting ARC and SAM domains of tankyrases was developed in a previous study.[52] The high-throughput screening of the EU-OPENSCREEN Pilot and Commercials Diversity libraries was performed at the Norwegian Centre for Molecular Biosciences and Medicine (NCMBM, formerly NCMM). For the primary screen, assay-ready plates containing library compound sufficient to reach a screening concentration of 30 µM were prepared on black shallow-well 384-microwell plates (Greiner bio-one small volume, high base, non-binding microplate black, 784900 or Fisherbrand™ 384-Well ShallowWell Polypropylene Microplates, 12-566-617, Fisher Scientific) using 30 nL of 10 mM DMSO compound stocks dispensed with an Echo 550 [compound left out] handler (Labcyte). Each screening plate also contained DMSO controls at equivalent volumes to compounds for positive, negative, and assay buffer blank controls, 16 wells per control type. Stock solutions of CFP-TNKS2 ARC4 and YFP-REAGDGEE or CFP-SAM(E897K) and YFP-SAM(Y920A) were combined and diluted in assay buffer (10 mM BTP pH 7, 3% weight/volume PEG 20000, 0.01% volume/volume Triton, 0.5 mM TCEP) to final concentrations of 100 nM and 200 nM or 150 and 300 nM, respectively. The positive control was prepared by addition of guanidine hydrochloride to the above assay buffer to a final concentration of 1M. A volume of 10 µL of these solutions was added to each well of the assay-ready plates using a BioTek MultiFlo FX dispenser (Agilent) equipped with 5 uL dispensing cassettes for the peristaltic pumps (screening solution and control) and a syringe pump (assay buffer blank). After [compound left out] handling, plates were incubated at RT for 30 minutes before reading fluorescence using a BioTek Synergy Neo2 plate reader (Agilent) with Gen5 software (version 3.02) at four wavelength combinations – 410/477, 410/527, 430/477, 430/527 – each with an excitation bandwidth of 20 nm and an emission bandwidth of 10 nm; a gain setting of 135; a “Normal” read speed with 10 msec delay after plate movement, 50 measurements per data point, low lamp energy, and a “Standard” dynamic range (0 to 99,999); and a read height of 4.5 mm. A SAR investigation was conducted with purchased and synthesized analogues of 1 through FRET-based potency measurements and DSF assay with TNKS2 ARC4 (Table 2, Table S2). All the compounds commercially acquired underwent quality control. […] Changes to the length of the aliphatic chain at R[3] greatly impacts both potency and protein stabilization. […] The diethylamino-based substituent at R[3] […] Compounds 25 and 26 further indicate that the presence of tertiary amine at R[3] is not necessary to achieve binding.

[2] = target: T1, TNKS2 ARC4; set-up: DSF thermal shift of TNKS2 ARC4, stabilization over DMSO control; details: binder
From the text: Given the notable stabilization of the pyrrolone-based compounds from the Commercials Diversity collection, we decided to focus on their common scaffold for compound optimization. Pyrrolone is indeed a versatile moiety that is largely employed for the design of compounds with a variety of biological effects.[55] The nine primary hits were acquired from commercial suppliers, they underwent quality control, additional DSF validation and determination of potency through FRET-based IC50 measurements (Table 1). All the tested compounds include a benzodioxane moiety (R[1]), a [compound left out] group with substitutions in the para position (R[2]), and an R[3] group with an aliphatic character and a tertiary amine. […] In addition, all molecules, except for 7, have IC50 values below 100 µM. Among the nine molecules, 1 performed the best in terms of stabilization of TNKS2 ARC4 and potency. […] In the same position, the presence of a hydrophobic methyl group (3, 4), other halogen substituents (5) and alkoxy groups (6–9) is also tolerated, even if not optimal. […] A SAR investigation was conducted with purchased and synthesized analogues of 1 through FRET-based potency measurements and DSF assay with TNKS2 ARC4 (Table 2, Table S2). All the compounds commercially acquired underwent quality control. […] Changes to the length of the aliphatic chain at R[3] greatly impacts both potency and protein stabilization. […] The diethylamino-based substituent at R[3] […] Compounds 25 and 26 further indicate that the presence of tertiary amine at R[3] is not necessary to achieve binding. […] 5 Figure S2. DSF assay results for validation of primary hits identified in the EU-OPENSCREEN Commercials Diversity Library. (A) and (B) show DSF assay validation measurements of TNKS2 ARC4 with primary hits from the Commercial Diversity Library. Compounds are tested at 100 μM. They are named after their EU-OPENSCREEN identity codes and the identities are available for consultation on ECBD. 1,2 (A) and (B) show results from two independent experiments. For each experiment, each compound was tested with a single measurement, while controls (TNKS2 ARC4 with 100 μM optimized peptide, TNKS2 ARC4 with 100 μM DMSO) are studied in at least four replicates and errors are shown. Moreover, stabilization over the control (TNKS2 ARC4 with DMSO) is indicated (ΔTm °C). […] It was not possible to measure the melting curve of TNKS2 ARC4 in presence of EOS21552, EOS54043, EOS54043.

SMILES | IC50 [1] [µM] | ΔTm ± SD (°C) [2] [°C] | IC50 ([1]; inhibitor) [µM]
O=C(C1=C(O)C(=O)N(Cc2ccccc2)C1c1cccc(O)c1)c1ccc2c(c1)OCCO2 (centres unmarked) [compound 36, 36] | 23 | 0.45 ± 0.25 | 
COc1cc(C2C(C(=O)c3ccc4c(c3)OCCO4)=C(O)C(=O)N2CCCN2CCOCC2)ccc1O (centres unmarked) [compound 45, 45] |  | 2.32 ± 0.33 | 78
O=C(C1=C(O)C(=O)N(Cc2ccncc2)C1c1ccncc1)c1ccc2c(c1)OCCO2 (centres unmarked) [compound 44, 44] | > 1000 | 0.21 ± 0.26 | 
N=C(N)NCCCN1C(=O)C(O)=C(C(=O)c2ccc3c(c2)OCCO3)C1c1cccc(O)c1 (centres unmarked) [S5] | 121 | 1.31 ± 0.17 | 
COCCN1C(=O)C(O)=C(C(=O)c2ccc3c(c2)OCCO3)C1c1cccc(O)c1 (centres unmarked) [compound 35, 35] | 305 | 0.82 ± 0.38 | 
Cc1ccc(C2C(C(=O)c3ccc4c(c3)OCCO4)=C(O)C(=O)N2CCN(C)C)cc1 (centres unmarked) [compound 38, 38] |  | 0.67 ± 0.28 | 493
O=C(C1=C(O)C(=O)N(CCCN2CCNCC2)C1c1cccc(O)c1)c1ccc2c(c1)OCCO2 (centres unmarked) [S2] | 302 | 0.80 ± 0.16 | 
Cc1ccc(C2C(C(=O)c3ccc4c(c3)OCCO4)=C(O)C(=O)N2Cc2ccccc2)cc1 (centres unmarked) [compound 37, 37] | 71 | 0.51 ± 0.31 | 
O=C(C1=C(O)C(=O)N(CCCN2CCOCC2)C1c1ccc(F)cc1)c1ccc2c(c1)OCCO2 (centres unmarked) [compound 43, 43] | 114 | 1.61 ± 0.37 | 

Other lines, results leading:

IC50 [1] [µM] | ΔTm ± SD (°C) [2] [°C] | IC50 ([1]; inhibitor) [µM] | SMILES
> 1000 | 0.14 ± 0.25 |  | COc1ccc(C(=O)C2=C(O)C(=O)N(CCCN3CCOCC3)C2c2ccccc2)cc1OC (centres unmarked) [compound 29, 29]
 | -0.20 ± 0.22 | > 1000 | Cc1ccccc1COc1ccc(C(=O)C2=C(O)C(=O)N(CCCN(C)C)C2c2cccc(O)c2)cc1 (centres unmarked) [compound 28, 28]
133 | 1.20 ± 0.19 |  | N=C(N)NCCCN1C(=O)C(O)=C(C(=O)c2ccc3c(c2)OCCO3)C1c1ccccc1 (centres unmarked) [S3]
 | 0.91 ± 0.31 | 65 | O=C(C1=C(O)C(=O)N(CCc2ccccc2)C1c1ccccc1)c1ccc2c(c1)OCCO2 (centres unmarked) [compound 41, 41]
 | 0.47 ± 0.31 | 360 | COCCCN1C(=O)C(O)=C(C(=O)c2ccc3c(c2)OCCO3)C1c1ccccc1 (centres unmarked) [compound 40, 40]
 | 1.05 ± 0.36 | 255 | CCN(CC)CCN1C(=O)C(O)=C(C(=O)c2ccc3c(c2)OCCO3)C1c1ccccc1 (centres unmarked) [compound 39, 39]
101 | 2.26 ± 0.34 |  | O=C(C1=C(O)C(=O)N(CCCN2CCOCC2)C1c1ccccc1)c1ccc2c(c1)OCCO2 (centres unmarked) [compound 42, 42]
> 1000 | 0.23 ± 0.25 |  | COc1cccc(C(=O)C2=C(O)C(=O)N(CCCN3CCOCC3)C2c2ccccc2)c1 (centres unmarked) [compound 32, 32]
> 1000 | -0.08 ± 0.41 |  | Cc1cc(C(=O)C2=C(O)C(=O)N(CCCN(C)C)C2c2ccc(O)cc2)ccc1OC(C)C (centres unmarked) [compound 34, 34]
> 1000 | 0.12 ± 0.25 |  | COc1ccc(C(=O)C2=C(O)C(=O)N(CCCN3CCOCC3)C2c2ccc(C)cc2)cc1OC (centres unmarked) [compound 30, 30]
136 | 1.46 ± 0.52 |  | CCN(CC)CCCN1C(=O)C(O)=C(C(=O)c2ccc(OC)cc2)C1c1ccccc1 (centres unmarked) [compound 31, 31]
> 1000 | 0.36 ± 0.33 |  | COc1cccc(C(=O)C2=C(O)C(=O)N(CCCN3CCOCC3)C2c2ccc(C)cc2)c1 (centres unmarked) [compound 33, 33]
 | -0.03 ± 0.11 | > 1000 | CN(C)CCCN1C(=O)C(O)=C(C(=O)c2ccc3c(c2)oc(=O)n3C)C1c1ccccc1 (centres unmarked) [compound 27, 27]
